The record followed here is US20250122218A1, “MODULATORS OF CYSTIC FIBROSIS TRANSMEMBRANE CONDUCTANCE REGULATOR” (Vertex Pharmaceuticals Incorporated, priority 2022, published 2025).

The term EC50 denotes the concentration at which the effect is half-maximal.

In the assay the target is T1, CFTR in F508del/MF-HBE cells (Homo sapiens, UniProt P13569, DEL508-508).
T1 construct: human bronchial epithelial (HBE) cells derived from CF subjects heterozygous for F508del and a minimal function CFTR mutation; endogenous in cells; host or cells: primary human bronchial epithelial cells from CF subjects (F508del/MF-HBE)
T1 sequence (P13569 with tags, fused parts or gaps DEL508-508): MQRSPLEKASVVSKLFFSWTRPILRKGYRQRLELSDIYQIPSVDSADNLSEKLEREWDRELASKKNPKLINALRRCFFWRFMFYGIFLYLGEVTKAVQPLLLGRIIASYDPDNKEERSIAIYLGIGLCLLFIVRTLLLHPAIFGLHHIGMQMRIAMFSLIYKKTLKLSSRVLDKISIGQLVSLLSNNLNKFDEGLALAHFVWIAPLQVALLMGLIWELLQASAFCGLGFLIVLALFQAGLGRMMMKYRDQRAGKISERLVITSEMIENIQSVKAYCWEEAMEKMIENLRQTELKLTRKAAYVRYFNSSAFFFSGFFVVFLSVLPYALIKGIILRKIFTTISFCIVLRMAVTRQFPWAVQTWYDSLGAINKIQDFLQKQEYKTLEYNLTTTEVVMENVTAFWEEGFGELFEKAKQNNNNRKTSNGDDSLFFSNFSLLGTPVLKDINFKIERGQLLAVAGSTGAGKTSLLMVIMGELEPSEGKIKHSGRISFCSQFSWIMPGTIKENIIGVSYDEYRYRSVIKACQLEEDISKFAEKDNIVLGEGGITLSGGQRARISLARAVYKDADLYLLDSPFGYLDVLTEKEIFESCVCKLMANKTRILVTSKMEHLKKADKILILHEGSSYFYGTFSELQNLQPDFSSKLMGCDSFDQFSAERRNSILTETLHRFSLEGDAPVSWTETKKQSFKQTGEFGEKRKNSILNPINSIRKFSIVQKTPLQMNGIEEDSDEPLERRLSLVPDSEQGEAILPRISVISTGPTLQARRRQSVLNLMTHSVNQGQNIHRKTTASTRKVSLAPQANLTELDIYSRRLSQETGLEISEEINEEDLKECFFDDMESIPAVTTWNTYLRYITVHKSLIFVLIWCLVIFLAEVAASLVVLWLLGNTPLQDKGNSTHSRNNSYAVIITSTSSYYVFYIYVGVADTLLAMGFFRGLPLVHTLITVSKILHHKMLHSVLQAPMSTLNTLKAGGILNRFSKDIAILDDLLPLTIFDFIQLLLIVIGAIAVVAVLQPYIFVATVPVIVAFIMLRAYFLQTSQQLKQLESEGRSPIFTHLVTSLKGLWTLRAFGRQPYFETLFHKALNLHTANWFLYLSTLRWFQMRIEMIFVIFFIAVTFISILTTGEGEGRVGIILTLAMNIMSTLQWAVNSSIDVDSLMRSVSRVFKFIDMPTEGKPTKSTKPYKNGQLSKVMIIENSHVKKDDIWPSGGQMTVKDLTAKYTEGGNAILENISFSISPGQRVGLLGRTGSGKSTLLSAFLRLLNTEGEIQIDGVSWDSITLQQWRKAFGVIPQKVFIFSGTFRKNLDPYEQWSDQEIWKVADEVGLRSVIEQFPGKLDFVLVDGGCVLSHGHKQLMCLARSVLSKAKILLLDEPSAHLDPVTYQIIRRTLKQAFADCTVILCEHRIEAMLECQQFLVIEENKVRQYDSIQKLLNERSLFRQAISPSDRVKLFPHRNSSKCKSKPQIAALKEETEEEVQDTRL
As to the kind of experiment: Ussing chamber assay of CFTR-mediated short-circuit currents (identification of potentiator compounds). The format is cell-based. As to conditions: potentiator incubated 18-24 hours at 37° C. in combination with 10 μM corrector, in the presence of 20% human serum, CFTR-mediated ISC. The gist of the method:
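F508del/MF-HBE cultures were preincubated 18-24 h at 37° C with potentiator plus 10 μM of a fixed corrector compound in 20% human serum; compounds were kept present during measurement. ISC was recorded under voltage clamp (0 mV, 37° C, amiloride apical) and taken as the 20 μM forskolin peak minus the current after inhibitor cocktail.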
As for `Cn1ccc(CN2CCCCC[C@](O)(C(F)(F)F)C3=NN=C(O3)c3nc(c(C(F)(F)F)cc3N)C2=O)n1` [Compound 117, (6R)-17-Amino-6-hydroxy-12-[(1-methylpyrazol-3-yl)methyl]-6,15-bis (trifluorom ethyl)-19-oxa-3,4,12,18-tetrazatricyclo [12.3.1.12,5] nonadeca-1(18),2,4,14,1 6-pentaen-13-one], the EC50 is > 1000 nM. In the case of `Cn1cc(CN2CCCCC[C@](O)(C(F)(F)F)C3=NN=C(O3)c3nc(c(C(F)(F)F)cc3N)C2=O)cn1` [Compound 118, (6R)-17-Amino-6-hydroxy-12-[(1-methylpyrazol-4-yl)methyl]-6,15-bis (trifluoromethyl)-19-oxa-3,4,12,18-tetrazatricyclo [12.3.1.12,5] nonadeca-1(18),2,4,14,1 6-pentaen-13-one], the EC50 was > 1000 nM. For `CC(C)(C)c1ccc(CN2CCCCC[C@](O)(C(F)(F)F)C3=NN=C(O3)c3nc(c(C(F)(F)F)cc3N)C2=O)cn1` [Compound 119, (6R)-17-Amino-12-[(6-tert-butyl-3-pyridyl)methyl]-6-hydroxy-6,15-bis (trifluoromethyl)-19-oxa-3,4,12,18-tetrazatricyclo [12.3.1.12,5] nonadeca-1(18),2,4,14,1 6-pentaen-13-one] the value was < 500 nM. For `CC(C)(C)c1ccc(CN2CCCCC[C@](O)(C(F)(F)F)C3=NN=C(O3)c3nc(c(C(F)(F)F)cc3N)C2=O)nc1` [Compound 120, (6R)-17-Amino-12-[(5-tert-butyl-2-pyridyl)methyl]-6-hydroxy-6,15-bis (trifluoromethyl)-19-oxa-3,4,12,18-tetrazatricyclo [12.3.1.12,5] nonadeca-1(18),2,4,14,1 6-pentaen-13-one] the value was < 500 nM; for `Nc1cc(C(F)(F)F)c2nc1-c1nnc(o1)[C@@](O)(C(F)(F)F)CCCCCN(C13CC(F)(C1)C3)C2=O` [Compound 121, (6R)-17-Amino-12-(3-fluoro-1-bicyclo[1.1.1]pentanyl)-6-hydroxy-6,15-bis (trifluorom ethyl)-19-oxa-3,4,12,18-tetrazatricyclo [12.3.1.12,5] nonadeca-1(18),2,4,14,1 6-pentaen-13-one], < 500 nM.

With `CC12CC(N3CCCCC[C@](O)(C(F)(F)F)c4nnc(o4)-c4nc(c(C(F)(F)F)cc4N)C3=O)(C1)C2` [Compound 122, (6R)-17-Amino-6-hydroxy-12-(3-methyl-1-bicyclo[1.1.1]pentanyl)-6,15-bis (trifluoromethyl)-19-oxa-3,4,12,18-tetrazatricyclo [12.3.1.12,5] nonadeca-1(18),2,4,14,1 6-pentaen-13-one], the EC50 is < 500 nM. On to `CC(C)(C)C12CC(N3CCCCC[C@](O)(C(F)(F)F)c4nnc(o4)-c4nc(c(C(F)(F)F)cc4N)C3=O)(C1)C2` [Compound 123, (6R)-17-Amino-12-(3-tert-butyl-1-bicyclo[1.1.1]pentanyl)-6-hydroxy-6,15-bis (trifluoromethyl)-19-oxa-3,4,12,18-tetrazatricyclo [12.3.1.12,5] nonadeca-1(18),2,4,14,1 6-pentaen-13-one], for which the EC50 is < 500 nM. Turning to `CC1(C)CCCC[C@](O)(C(F)(F)F)C2=NN=C(O2)c2nc(c(C(F)(F)F)cc2N)C(=O)N(Cc2ccc3c(c2)OC(F)(F)O3)C1` [Compound 124, (6R)-18-amino-13-[(2,2-difluoro-1,3-benzodioxol-5-yl)methyl]-6-hydroxy-11,11-dimethyl-6,16-bis (trifluoromethyl)-20-oxa-3,4,13,19-tetrazatricyclo [13.3.1.12,5]icosa-1(19),2,4,15,1 7-pentaen-14-one], the EC50 was < 500 nM.

For `Nc1cc(C(F)(F)F)c2nc1-c1nnc(o1)[C@@](O)(C(F)(F)F)CCCCCN(C13CCC(CC1)C3)C2=O` [Compound 125, (6R)-17-amino-6-hydroxy-12-norbornan-1-yl-6,15-bis (trifluoromethyl)-19-oxa-3,4,12,18-tetrazatricyclo [12.3.1.12,5] nonadeca-1(18),2,4,14,1 6-pentaen-13-one], the EC50 is < 500 nM.

As for `Nc1cc(C(F)(F)F)c2nc1-c1nnc(o1)[C@@](O)(C(F)(F)F)CCCCCN(c1cccnc1)C2=O` [Compound 126, (6R)-17-amino-6-hydroxy-12-(3-pyridyl)-6,15-bis (trifluoromethyl)-19-oxa-3,4,12,18-tetrazatricyclo [12.3.1.12,5] nonadeca-1(18),2,4,14,1 6-pentaen-13-one], the concentration for a half-maximal effect (EC50) is > 1000 nM. Next, `Cc1ccccc1CN1CCCCC[C@](O)(C(F)(F)F)C2=NN=C(O2)c2nc(c(C(F)(F)F)cc2N)C1=O` [Compound 127, (6R)-17-amino-6-hydroxy-12-(0-tolylmethyl)-6,15-bis (trifluoromethyl)-19-oxa-3,4,12,18-tetrazatricyclo [12.3.1.12,5] nonadeca-1(18),2,4,14,1 6-pentaen-13-one]: < 500 nM; `CC(C)n1cc(CN2CCCCC[C@](O)(C(F)(F)F)C3=NN=C(O3)c3nc(c(C(F)(F)F)cc3N)C2=O)cn1` [Compound 128, (6R)-17-amino-6-hydroxy-12-[(1-isopropylpyrazol-4-yl)methyl]-6,1-bis (trifluoromethyl)-19-oxa-3,4,12,18-tetrazatricyclo [12.3.1.12,5] nonadeca-1(18),2,4,14,1 6-pentaen-13-one]: < 500 nM; `CC(C)n1nccc1CN1CCCCC[C@](O)(C(F)(F)F)C2=NN=C(O2)c2nc(c(C(F)(F)F)cc2N)C1=O` [Compound 129, (6R)-17-amino-6-hydroxy-12-[(2-isopropylpyrazol-3-yl)methyl]-6,15-bis (trifluoromethyl)-19-oxa-3,4,12,18-tetrazatricyclo [12.3.1.12,5] nonadeca-1(18),2,4,14,1 6-pentaen-13-one]: < 500 nM. Next, `Nc1cc(C(F)(F)F)c2nc1-c1nnc(o1)[C@@](O)(C(F)(F)F)CCCCCN(CC1CCOCC1)C2=O` [Compound 132, (6R)-17-amino-6-hydroxy-12-(tetrahydropyran-4-ylmethyl)-6,15-bis (trifluoromethyl)-19-oxa-3,4,12,18-tetrazatricyclo [12.3.1.12,5] nonadeca-1(18),2,4,14,1 6-pentaen-13-one]: < 500 nM; `Cc1ccc(CN2CCCCC[C@](O)(C(F)(F)F)C3=NN=C(O3)c3nc(c(C(F)(F)F)cc3N)C2=O)cc1` [Compound 134, (6R)-17-amino-6-hydroxy-12-(p-tolylmethyl)-6,15-bis (trifluoromethyl)-19-oxa-3,4,12,18-tetrazatricyclo [12.3.1.12,5] nonadeca-1(18),2,4,14,1 6-pentaen-13-one]: < 500 nM; `Nc1cc(C(F)(F)F)c2nc1-c1nnc(o1)[C@@](O)(C(F)(F)F)CCCCCN(Cc1ccc(C(F)(F)F)cc1)C2=O` [Compound 135, (6R)-17-amino-6-hydroxy-6,15-bis (trifluoromethyl)-12-[[4-(trifluoromethyl)phenyl]methyl]-19-oxa-3,4,12,18-tetrazatricyclo [12.3.1.12,5] nonadeca-1(18),2,4,14,1 6-pentaen-13-one]: < 500 nM. Next, `Nc1cc(C(F)(F)F)c2nc1-c1nnc(o1)[C@@](O)(C(F)(F)F)CCCCCN(Cc1ccc(F)cc1)C2=O` [Compound 136, (6R)-17-amino-12-[(4-fluorophenyl)methyl]-6-hydroxy-6,15-bis (trifluorom ethyl)-19-oxa-3,4,12,18-tetrazatricyclo [12.3.1.12,5] nonadeca-1(18),2,4,14,1 6-pentaen-13-one]: < 500 nM; `Nc1cc(C(F)(F)F)c2nc1-c1nnc(o1)[C@@](O)(C(F)(F)F)CCCCCN(CCc1ccccc1)C2=O` [Compound 137, (6R)-17-amino-6-hydroxy-12-(2-phenylethyl)-6,15-bis (trifluoromethyl)-19-oxa-3,4,12,18-tetrazatricyclo [12.3.1.12,5] nonadeca-1(18),2,4,14,1 6-pentaen-13-one]: < 500 nM.

As for `COc1cccc(CN2CCCCC[C@](O)(C(F)(F)F)C3=NN=C(O3)c3nc(c(C(F)(F)F)cc3N)C2=O)c1` [Compound 138, (6R)-17-amino-6-hydroxy-12-[(3-methoxyphenyl)methyl]-6,15-bis (trifluorom ethyl)-19-oxa-3,4,12,18-tetrazatricyclo [12.3.1.12,5] nonadeca-1(18),2,4,14,1 6-pentaen-13-one], the EC50 was < 500 nM. Regarding `CC(C)c1cccc(CN2CCCCC[C@](O)(C(F)(F)F)C3=NN=C(O3)c3nc(c(C(F)(F)F)cc3N)C2=O)c1` [Compound 139, (6R)-17-amino-6-hydroxy-12-[(3-isopropylphenyl)methyl]-6,15-bis (trifluoromethyl)-19-oxa-3,4,12,18-tetrazatricyclo [12.3.1.12,5] nonadeca-1(18),2,4,14,1 6-pentaen-13-one], the EC50 is < 500 nM. For `Cc1cccnc1CN1CCCCC[C@](O)(C(F)(F)F)C2=NN=C(O2)c2nc(c(C(F)(F)F)cc2N)C1=O` [Compound 140, (6R)-17-amino-6-hydroxy-12-[(3-methyl-2-pyridyl)methyl]-6,15-bis (trifluoromethyl)-19-oxa-3,4,12,18-tetrazatricyclo [12.3.1.12,5] nonadeca-1(18),2,4,14,1 6-pentaen-13-one] the value was < 500 nM. For `Nc1cc(C(F)(F)F)c2nc1-c1nnc(o1)[C@@](O)(C(F)(F)F)CCCCCN(Cc1ccccc1OC(F)(F)F)C2=O` [Compound 141, (6R)-17-amino-6-hydroxy-12-[[2-(trifluoromethoxy)phenyl]methyl]-6,15-bis (trifluoromethyl)-19-oxa-3,4,12,18-tetrazatricyclo [12.3.1.12,5] nonadeca-1(18),2,4,14,1 6-pentaen-13-one] the value was < 500 nM.
